The text below walks through data of patent US20040029773A1, “Use of 1-ebio in the treatment of bipolar disorders” (priority 2000, published 2004).

For test [1], the system named is amphetamine/chlordiazepoxide-induced hyperactivity in mice. The following applies: previous validation studies (literature); cited from earlier work.
For test [2] the test system is unchanged. Put plainly: amphetamine/chlordiazepoxide-induced hyperactivity, rodent model of mania (locomotor activity). The following applies: 150 mg/kg i.p., data not shown.

Regarding `CCCC(CCC)C(=O)[O-].[Na+]` [sodium valproate], the “behaviour induced by amphetamine plus chlordiazepoxide” value in test [1] is listed as “can be ameliorated”. The amphetamine/chlordiazepoxide-induced hyperactivity entry in test [2] is reported as “can be prevented”.
